From US20160052926A1, “NOVEL PYRIMIDINE AND PYRIDINE COMPOUNDS AND USAGE THEREOF” (HUTCHISON MEDIPHARMA LIMITED, priority 2013, published 2016)

Key:
FGFR3 kinase = FGFR3 kinase (Homo sapiens, UniProt P22607); assay: Z-Lyte Kinase Assay of FGFR3; type: biochemical
Method in brief: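 Kinase at 0.7 μg/ml with 4 μM Z-LYTE Tyr 4 peptide and ATP diluted to 300 uM (working solution, 1.33× buffer); compounds 1–0.00046 μM, 2% DMSO final. Kinase reaction and development each 1 h at RT (25-30[…]); coumarin (445 nm) and fluorescein (520 nm) emission read, inhibition from % phosphorylation.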

KG-1 = assay: Cellular Proliferation Assay (Cell Counting Kit-8), KG-1; type: cell-based; conditions: Homo sapiens, KG1 cells, 72 hours
Method in brief: (§1)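 Seeding was 30,000 (KG-1), 5,000 (SNU-16) or 1,000 (RT-112) cells per well, with compound added 24 h later. Dilutions were prepared as an 8-point series of 10 to 0.004 μM in 5% DMSO, before addition to wells.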

RT-112 = assay: Cellular Proliferation Assay (Cell Counting Kit-8), RT-112; type: cell-based; conditions: Homo sapiens, RT-112 cells, 72 hours
Method in brief: as §1

Recombinant human FGFR1 = Recombinant human FGFR1 (Homo sapiens, UniProt P11362); assay: Transcreener Kinase Assay of FGFR1; type: biochemical; conditions: read-out: FGFR1 (FP) IC50
SNU-16 = assay: Cellular Proliferation Assay (Cell Counting Kit-8), SNU-16; type: cell-based; conditions: Homo sapiens, SNU-16 cells, 72 hours
Method in brief: as §1

Recombinant human FGFR2 = Recombinant human FGFR2 (Homo sapiens, UniProt P21802); assay: Transcreener Kinase Assay of FGFR2; type: biochemical; conditions: read-out: FGFR2 (FP) IC50
Sequence of Recombinant human FGFR2 (P21802 22-821): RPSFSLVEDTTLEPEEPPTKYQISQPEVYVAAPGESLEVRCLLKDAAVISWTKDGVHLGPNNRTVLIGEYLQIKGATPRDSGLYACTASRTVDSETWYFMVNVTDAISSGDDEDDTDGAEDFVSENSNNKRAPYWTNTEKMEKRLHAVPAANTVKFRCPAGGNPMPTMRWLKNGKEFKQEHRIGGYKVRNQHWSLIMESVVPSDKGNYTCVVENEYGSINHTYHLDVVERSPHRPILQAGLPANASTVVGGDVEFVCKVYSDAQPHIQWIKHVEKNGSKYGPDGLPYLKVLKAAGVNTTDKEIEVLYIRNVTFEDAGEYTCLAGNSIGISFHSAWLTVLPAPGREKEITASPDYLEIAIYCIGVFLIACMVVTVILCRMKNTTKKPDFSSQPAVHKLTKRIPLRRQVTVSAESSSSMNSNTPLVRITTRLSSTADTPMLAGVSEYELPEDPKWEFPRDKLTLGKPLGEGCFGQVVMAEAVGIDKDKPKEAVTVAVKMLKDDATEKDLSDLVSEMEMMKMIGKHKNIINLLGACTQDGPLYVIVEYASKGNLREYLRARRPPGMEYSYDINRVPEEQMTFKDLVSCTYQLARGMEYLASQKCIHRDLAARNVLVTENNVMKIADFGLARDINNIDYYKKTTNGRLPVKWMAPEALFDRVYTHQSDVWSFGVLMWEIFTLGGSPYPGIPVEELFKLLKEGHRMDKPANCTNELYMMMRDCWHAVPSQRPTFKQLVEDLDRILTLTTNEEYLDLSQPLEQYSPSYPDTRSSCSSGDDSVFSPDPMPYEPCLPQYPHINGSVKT

Sequence of Recombinant human FGFR1 (P11362 22-822): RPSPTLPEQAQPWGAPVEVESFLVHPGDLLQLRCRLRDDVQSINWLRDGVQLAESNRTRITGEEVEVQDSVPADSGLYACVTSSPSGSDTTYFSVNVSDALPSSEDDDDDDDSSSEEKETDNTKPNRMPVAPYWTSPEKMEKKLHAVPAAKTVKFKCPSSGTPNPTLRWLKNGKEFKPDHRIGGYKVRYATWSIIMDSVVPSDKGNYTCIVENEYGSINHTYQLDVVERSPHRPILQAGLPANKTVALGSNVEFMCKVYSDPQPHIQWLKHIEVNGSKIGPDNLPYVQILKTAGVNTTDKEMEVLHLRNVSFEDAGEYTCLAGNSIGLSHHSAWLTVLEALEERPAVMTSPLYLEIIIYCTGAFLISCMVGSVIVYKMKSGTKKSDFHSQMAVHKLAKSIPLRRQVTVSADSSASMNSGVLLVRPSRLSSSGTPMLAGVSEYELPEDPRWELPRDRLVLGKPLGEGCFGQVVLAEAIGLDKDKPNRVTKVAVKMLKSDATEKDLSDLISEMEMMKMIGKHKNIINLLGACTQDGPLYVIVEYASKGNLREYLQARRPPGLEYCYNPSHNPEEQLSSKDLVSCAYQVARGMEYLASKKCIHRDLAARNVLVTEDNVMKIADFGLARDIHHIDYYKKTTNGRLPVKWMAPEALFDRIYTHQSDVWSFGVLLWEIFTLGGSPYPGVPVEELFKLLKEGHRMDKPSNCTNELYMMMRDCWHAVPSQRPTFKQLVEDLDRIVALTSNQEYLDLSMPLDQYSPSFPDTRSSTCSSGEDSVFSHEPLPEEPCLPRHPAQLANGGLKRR
Sequence of FGFR3 kinase (P22607 23-806): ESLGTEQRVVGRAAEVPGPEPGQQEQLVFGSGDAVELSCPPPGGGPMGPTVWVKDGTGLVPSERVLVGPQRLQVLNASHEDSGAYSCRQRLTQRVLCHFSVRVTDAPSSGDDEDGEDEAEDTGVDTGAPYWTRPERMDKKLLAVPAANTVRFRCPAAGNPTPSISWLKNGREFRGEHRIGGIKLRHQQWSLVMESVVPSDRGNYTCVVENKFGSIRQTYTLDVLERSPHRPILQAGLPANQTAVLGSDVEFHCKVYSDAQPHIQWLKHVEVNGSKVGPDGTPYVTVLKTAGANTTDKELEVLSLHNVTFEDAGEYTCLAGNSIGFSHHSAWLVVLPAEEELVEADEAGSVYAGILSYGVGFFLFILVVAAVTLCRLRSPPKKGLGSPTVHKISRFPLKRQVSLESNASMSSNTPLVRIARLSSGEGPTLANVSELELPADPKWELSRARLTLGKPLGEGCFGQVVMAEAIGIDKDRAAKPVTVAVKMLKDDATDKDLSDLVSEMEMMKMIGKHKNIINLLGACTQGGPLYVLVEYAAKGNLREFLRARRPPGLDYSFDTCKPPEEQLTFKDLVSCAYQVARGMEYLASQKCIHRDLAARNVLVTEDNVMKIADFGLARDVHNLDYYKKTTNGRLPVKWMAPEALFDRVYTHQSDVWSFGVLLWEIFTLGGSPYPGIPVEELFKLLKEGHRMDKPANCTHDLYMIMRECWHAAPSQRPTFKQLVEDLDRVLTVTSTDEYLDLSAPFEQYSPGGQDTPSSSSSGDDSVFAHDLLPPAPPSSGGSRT

Compound	IC50 (FGFR3 kinase) [µM]	IC50 (Recombinant human FGFR1) [µM]	IC50 (SNU-16) [µM]	IC50 (Recombinant human FGFR2) [µM]	IC50 (KG-1) [µM]	IC50 (RT-112) [µM]
CNC(=O)c1cc(CCc2cnc(Nc3cnn(C)c3C)nc2)c(F)c(OC)c1 [Compound 105]	0.03	0.031	0.048	0.011	0.201	0.428
CONC(=O)c1cc(CCc2cnc(Nc3ccc4nccn4c3)nc2)cc(OC)c1 [Compound 65]	0.112	0.048	0.055	0.028	0.203	0.296
CNC(=O)c1cc(CCc2cnc(Nc3ccc(N4C[C@@H](C)N[C@@H](C)C4)c(C)c3)nc2)c(Cl)c(OC)c1 [Compound 208]	0.009	0.01	0.017	0.005	0.06	0.021
CCN(CC)CCn1cc(Nc2ncc(CCc3cc(C(=O)NC)cc(OC)c3Cl)cn2)cn1 [Compound 86]	0.01	0.017	0.016	0.01	0.042	0.012
CNC(=O)c1cc(CCc2cnc(Nc3ccc(N4CCNC(C)(C)C4)cc3)nc2)c(Cl)c(OC)c1 [Compound 200]	0.006	0.009	0.02	0.006	0.091	0.034

Continued by falling IC50 (FGFR3 kinase), values first:

IC50 (FGFR3 kinase) [µM]	IC50 (Recombinant human FGFR1) [µM]	IC50 (SNU-16) [µM]	IC50 (Recombinant human FGFR2) [µM]	Compound	IC50 (KG-1) [µM]	IC50 (RT-112) [µM]
0.046	0.033	0.058	0.013	CNC(=O)c1cc(CCc2cnc(Nc3ccc4nc(C)oc4c3)nc2)c(F)c(OC)c1 [Compound 34]	0.132	0.308
0.044	0.037	0.071	0.027	CNC(=O)c1cc(CCc2cnc(Nc3ccc4nncn4c3)nc2)c(F)c(OC)c1 [Compound 67]	0.089	0.263
0.028	0.027	0.045	0.01	CNC(=O)c1cc(CCc2cnc(Nc3cnn(C(F)F)c3)nc2)c(F)c(OC)c1 [Compound 116]	0.02	0.019
0.006	0.006	0.014	0.006	CNC(=O)c1cc(CCc2cnc(Nc3ccc(N4C[C@@H](C)N[C@@H](C)C4)cc3)nc2)c(Cl)c(OC)c1 [Compound 79, 4-chloro-3-(2-(2-((4-((3S,5R)-3,5-dimethylpiperazin-1-yl)phenyl)amino)pyrimidin-5-yl)ethyl)-5-methoxy-N-methylbenzamide]	0.013	0.034
